Results as given in patent US20070111258A1, “Compositions and methods for modulating the acute phase response” (priority 2005, published 2007).

System: human CREBH
Test: Cleavage of flag-tagged human CREBH stably expressed in H2.35 cells (Western blot, cell fractionation)
Format: cell-based
Experimental: FIG. 3 depicts the effects of ER stress on CREBH: proteolytic cleavage of CREBH to release its N-terminal fragment that translocates into the nucleus. (A) Illustration of transmembrane domains and lumenal domains of SREBP, ATF6, Luman and CREBH in human (hs), mouse (mm). The conserved residues for S1P and S2P recognition are highlighted. (B) Cleavage of CREBH in H2.35 cells under different stimuli. H2.35 cells stably expressing flag-tagged human CREBH were treated with 0.5 μg/ml BFA, 20 ng/ml TNFα, 40 ng/ml IL6, 5 mM DTT, 0.5 μM Tg or 5 μg/ml Tm for 8 hours. Untransfected H2.35 cells (lane 1) and the H2.35 cells that stably express human CREBH (lane 2) were cultured under normal conditions as control. Total cell lysates were collected for Western blot analysis by using an anti-flag monoclonal antibody (upper panel). Levels of α-actin were determined for control of protein loading (lower panel). (C) Cleavage of CREBH in H2.35 cells under Tm treatment for various time periods. The H2.35 cells stably expressing flag-tagged CREBH were cultured in the absence or presence of Tm (5 μg/ml) for 4, 8 or 12 hours. Membrane fractions were isolated from the total cell lysates, and were subjected to Western blot analysis of CREBH and calnexin, respectively. Nuclear fractions were isolated from the same total cell lysates and subjected to Western blot analysis of CREBH and PARP, respectively. (D) Translocation of CREBH in COS7 cells. COS7 cells were co-transfected with a construct expressing flag-tagged full-length CREBH (CREBH-F) or CREBH-ΔC and a construct expressing KDEL-RFP, and were then cultured in the absence or presence of Tm (5 μg/ml) for 4 hours. Cells were then stained with FITC-conjugated anti-flag antibody and subjected to Zeiss Confocal Microscope analysis. Magnification: 40×10.
For analysis of expression and cleavage of CREBH protein, total cell lysates were prepared from H2.35 cells or COS7 cells using Nonidet P-40 lysis buffer (1% NP-40, 50 mM Tris-HCl at pH 7.5, 150 mM NaCl, 0.05% SDS) supplemented with protease inhibitors (Complete Mini from Roche Applied Science), 0.1 mM sodium vanadate, and 1 mM sodium fluoride. Membrane and nuclear fractions of cell lysates were isolated as previously described (Dignam et al., 1983). The total cell lysate, membrane and nuclear fractions were subjected to SDS-PAGE and then analyzed by Western blot using anti-flag monoclonal antibody or other antibodies. Immunoprecipitation and Western blot analyses of ATF6 and CREBH interaction in 293T cells expressing flag-tagged CREBH protein were performed by using anti-human ATF6 and anti-flag antibodies. Total cell lysates from 293T cells transfected with control vector or pFlag-CREBH-ΔC were immunoprecipitated with anti-human ATF6 polyclonal antibody and anti-flag antibody, respectively. The immunoprecipitated cell lysates were then subjected to Western blotting by using anti-flag antibody to detect CREBH protein and using anti-human ATF6 antibody to detect ATF6 protein, respectively. The same total cell lysates were subjected to Western blotting by using anti-flag antibody to detect expression of CREBH protein in the transfected cells. For detecting endogenous CREBH protein in the liver extracts, an anti-mouse CREBH polyclonal antibody was raised in rabbits against a purified mouse CREBH peptide composed of amino acids 92-109 [[…]]. The rabbit anti-human ATF6 polyclonal antibody was generated in the inventor's laboratory. The anti-mouse calnexin monoclonal antibody and the anti-mouse monoclonal PRAP antibody were purchased from Stressgen Biotechnologies (Victoria, BC, Canada) and BD Bioscience (Mountain View, Calif., USA), respectively.

tunicamycin [Tm]
cleavage of CREBH to release a 50 kD N-terminal fragment (H2.35 cells stably expressing flag-tagged human CREBH, 8 hours, BFA 0.5 μg/ml, TNFα 20 ng/ml, IL6 40 ng/ml, DTT 5 mM, Tg 0.5 μM, Tm 5 μg/ml): significantly induced cleavage of CREBH | amount of 50 kD N-terminal cleaved CREBH fragment in the nuclear fraction (Tm 5 μg/ml for 4, 8 or 12 hours): gradually increased with increasing times of Tm treatment
